US11576913B2 (priority 2018, dated 2023)
Where two headings read alike, the source gives them in different places.

Legend:
[1] = type: in vivo, rat; conditions: within 48 hours of oral dosing
Text: Specifically, liquid scintillation counting (“LSC”) was used for the determination of total radiolabeled Compound (1C) material, i.e., the original or parent compound and its metabolites. […] Using ^14C as a radiolabel for pharmacokinetic studies is a recognized technique and embedding the radiolabel into the ring structure was done to limit migration or exchange of the radiolabel to non-Compound (1C)-related molecules. The specific radioactivity for the lot of [^14C]-Compound (1C) synthesized was 2.50 MBq/mg (67.6 μCi/mg) [3.49 MBq/mg (94.4 μCi/mg) if the material were to be present as the free base form] with a radiochemical purity of greater than 98.5% as determined by HPLC. The synthesized radiolabeled [^14C]-Compound (1C) was stored away from light at a temperature of −80° C. before use.
Following oral administration of [^14C]-Compound (1C) (in an appropriate vehicle, e.g., a methyl cellulose suspension) to the experimental animals, excreta samples were collected over specified time intervals. Urine samples were collected at fixed intervals post dosing. Fecal samples were homogenized and diluted prior to being solubilized. Aliquots of these samples were counted following the addition of liquid scintillation fluid thereto. Detection limits for radioactivity in the excreta samples were set at twice the background count (from blank samples) as determined by LSC. The [^14C]-Compound (1C) was stable for about 4-5 hours in urine at a temperature of about 25° C. and, when kept refrigerated at 4° C., for up to 15 days (rat urine) and 36 days (dog urine). Recovery of [^14C]-Compound (1C) from rat urine was typically from about 91.6 to about 99.1%.

[2] = test system: subjects suffering from the Insomnia Disorder adult insomnia; type: in vivo, human
Protocol: Following the evening-time dosing with study drug, subjects underwent eight hours of continuous PSG recording. Next-day residual effects were assessed by the DSST and the KSS evaluation, collected in that order, starting at approximately 30 minutes after “lights-on.” All tests were administered in the clinical unit, beginning 30 minutes after lights-on and periodically thereafter for approximately 16 hours post-lights-off, following completion of PSG recording. Each subject also completed a post-sleep questionnaire once after lights-on so that subjective impressions could be assessed about the “quality” and “quantity” of their sleep. Before the second night dosing in each dosing period, subjects were evaluated for any residual sleepiness. […] Subjects remained in the clinic until residual symptoms were minimized.
The well-known KSS measures, subjectively, the level of a subject's sleepiness at a specific time of the day and was therefore useful as another indication of next day residual effects, if any. The KSS comprised a 9-step scale (ranging from, e.g., “extremely alert” (assigned 1 point) to alert (assigned 3 points) to “neither sleepy nor alert” (assigned 5 points) to “sleepy” (assigned 7 points) to “extremely sleepy” (assigned 9 points)) that characterized sleepiness at a particular time during the day (within 5 minutes of the assessment).
In a paper-and-pencil evaluation, each subject checked a box corresponding to the point of the scale that best characterized their state of drowsiness experienced during the preceding 5 minutes. The KSS evaluation followed the DSST after each night of the baseline visit (Visit 2) and after each night of Dosing Periods 1-5 according to the schedule set out in the previous example.
The KSS evaluation results shown, other than for the baseline, are the mean results obtained from the KSS evaluation scores following all nights of Dosing Periods 1-5 for the indicated dose. The KSS evaluation results for the baseline are the mean results obtained following the first and second nights of the baseline visit. Note that for clarity of display purposes, in FIG. 7 many of the test results at each time period, e.g., at approximately ½ hour after lights-on/9 hours post-dosing, were staggered arbitrarily away from the actual time when the test was conducted.

[3] = test system: healthy subjects and subjects with insomnia; type: in vivo, human
Protocol: The highest doses tested in healthy subjects were for a 30-mg single dose and a 10-mg multiple dose (once daily nighttime dose for 14 days). The highest dose tested in subjects with insomnia was 10 mg.
The most frequent treatment-emergent adverse event (TEAEs) experienced by subjects was somnolence.

## O=C(O)c1nc2ccccc2n([C@H]2C[C@H]3CCC[C@@H](C2)N3C2CC3CCCC(C3)C2)c1=O (some centres unmarked) [Compound (1C)]
[1]; Rat (female)
  Average % Elimination, Fecal: 27.9%
  Average % Elimination, Fecal + Urinary: 94.7%
  Average % Elimination, Urinary: 66.8%
[1]; Rat (male)
  Average % Elimination, Fecal: 41.6%
  Average % Elimination, Fecal + Urinary: 96.0%
  Average % Elimination, Urinary: 54.4%
[2]; 0.5 mg, about 9 to about 16 hours post-dosing
  next day residual effects by mean KSS evaluation results vs placebo: no next day residual effects
[2]; 1.0 mg, about 9 to about 16 hours post-dosing
  next day residual effects by mean KSS evaluation results vs placebo: no next day residual effects
[2]; 3.0 mg, each of the testing times
  next day residual effects by mean KSS evaluation results vs placebo: some next day residual effects
[2]; 6.0 mg, each of the testing times
  next day residual effects by mean KSS evaluation results vs placebo: some next day residual effects
[3]; 6 mg, nighttime dosing, healthy subjects and those with insomnia
  tolerability: well tolerated
[3]; across all tested dose levels
  safety and tolerability: safe and well tolerated
  serious adverse events (SAEs): no serious adverse events
[3]; completed clinical studies
  most frequent treatment-emergent adverse event: somnolence
  vital signs and electrocardiograms (ECGs): no clinically significant findings
[3]; dose equal or lower than 2 mg, after 8 hours post dosing
  next day residual effects: dose-dependent and generally decreased (back to placebo levels)
[3]; including crystalluria or hematuria
  laboratory findings: No concerning laboratory findings
